molecular target: His-tagged recombinant human Gal-3 (hGal-3) (Homo sapiens (Human), UniProt P17931); assay: Gal-3 HTRF assay (His-tagged hGal-3 binding to B-ASF); details: HTRF, hGal-3 15 nM, B-ASF 15 nM; read-out: hGal-3 IC50;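 also: compounds preincubated 30 min with hGal-3, then 1 h with B-ASF, detection via terbium anti-His antibody and streptavidin d2. Control with B-ASF counts as full signal, omitting B-ASF as background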
Sequence (P17931 whole entry): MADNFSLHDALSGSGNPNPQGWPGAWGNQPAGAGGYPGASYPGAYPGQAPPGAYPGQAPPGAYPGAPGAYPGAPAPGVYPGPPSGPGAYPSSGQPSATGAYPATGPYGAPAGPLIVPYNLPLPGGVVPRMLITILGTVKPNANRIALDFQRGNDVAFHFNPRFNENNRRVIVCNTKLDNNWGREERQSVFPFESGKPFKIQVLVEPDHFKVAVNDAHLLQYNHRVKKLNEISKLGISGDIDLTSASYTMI

| Compound | IC50 |
| --- | --- |
| CO[C@@H]1[C@@H](n2cc(-c3ccc(Cl)c(F)c3)nn2)[C@@H](O)[C@@H](CO)O[C@H]1c1nc(C)nn1-c1cc(Cl)ccc1Cl [Example 257, (2R,3R,4S,5R,6S)-4-(4-(4-chloro-3-fluorophenyl)-1H-1,2,3-triazol-1-yl)-6-(1-(2,5-dichlorophenyl)-3-methyl-1H-1,2,4-triazol-5-yl)-2-(hydroxymethyl)-5-methoxytetrahydro-2H-pyran-3-ol] | 50 nM |
| CO[C@@H]1[C@@H](n2cc(-c3ccc(Cl)c(F)c3)nn2)[C@@H](O)[C@@H](CO)O[C@H]1c1nc(C)nn1-c1cc(Cl)ccc1C [Example 258] | 60 nM |
| Cc1nc([C@@H]2O[C@H](CO)[C@H](O)[C@H](n3cc(-c4cc(F)c(Cl)c(F)c4)nn3)[C@H]2O)n(-c2cc(Cl)ccc2Cl)n1 [Example 260] | 50 nM |
| Cc1nc([C@@H]2O[C@H](CO)[C@H](O)[C@H](n3cc(-c4cc(F)c(Cl)c(F)c4)nn3)[C@H]2O)n(-c2cc(Cl)ccc2C)n1 [Example 261] | 20 nM |
| CCc1nc([C@@H]2O[C@H](CO)[C@H](O)[C@H](n3cc(-c4cc(F)c(F)c(F)c4)nn3)[C@H]2O)n(-c2ccc3nc(C)sc3c2)n1 [Example 267] | 60 nM |
| Cc1nc2ccc(-n3nc(CC(N)=O)nc3[C@@H]3O[C@H](CO)[C@H](O)[C@H](n4cc(-c5cc(F)c(F)c(F)c5)nn4)[C@H]3O)cc2s1 [Example 268] | 120 nM |
| Cc1nc2ccc(-n3nc(C(=O)O)nc3[C@H]3C[C@@H](n4cc(-c5cccc(F)c5)nn4)[C@@H](O)[C@@H](CO)O3)cc2s1 [Example 269, 5-((2R,4R,5R,6R)-4-(4-(3-fluorophenyl)-1H-1,2,3-triazol-1-yl)-5-hydroxy-6-(hydroxymethyl)tetrahydro-2H-pyran-2-yl)-1-(2-methylbenzo[d]thiazol-6-yl)-1H-1,2,4-triazole-3-carboxylic acid] | 330 nM |
| Cc1nc2ccc(-n3nc(C(C)(C)O)nc3[C@H]3C[C@@H](n4cc(-c5cc(F)c(F)c(F)c5)nn4)[C@@H](O)[C@@H](CO)O3)cc2s1 [Example 270, (2R,3R,4R,6R)-2-(hydroxymethyl)-6-(3-(2-hydroxypropan-2-yl)-1-(2-methylbenzo[d]thiazol-6-yl)-1H-1,2,4-triazol-5-yl)-4-(4-(3,4,5-trifluorophenyl)-1H-1,2,3-triazol-1-yl)tetrahydro-2H-pyran-3-ol] | 170 nM |
| CNC(=O)c1nc([C@H]2C[C@@H](n3cc(-c4cccc(F)c4)nn3)[C@@H](O)[C@@H](CO)O2)n(-c2ccc3nc(C)sc3c2)n1 [Example 271, 5-((2R,4R,5R,6R)-4-(4-(3-fluorophenyl)-1H-1,2,3-triazol-1-yl)-5-hydroxy-6-(hydroxymethyl)tetrahydro-2H-pyran-2-yl)-N-methyl-1-(2-methylbenzo[d]thiazol-6-yl)-1H-1,2,4-triazole-3-carboxamide] | 390 nM |
| Cc1nnc([C@@H]2O[C@H](CO)[C@H](O)[C@H](n3cc(-c4cc(F)c(F)c(F)c4)nn3)[C@H]2O)n1-c1cccc(Cl)c1 [Example 272, (2S,3R,4R,5R,6R)-2-(4-(3-chlorophenyl)-5-methyl-4H-1,2,4-triazol-3-yl)-6-(hydroxymethyl)-4-(4-(3,4,5-trifluorophenyl)-1H-1,2,3-triazol-1-yl)tetrahydro-2H-pyran-3,5-diol] | 70 nM |
| Cc1nc2ccc(-n3c(C)nnc3[C@@H]3O[C@H](CO)[C@H](O)[C@H](n4cc(-c5cc(F)c(F)c(F)c5)nn4)[C@H]3O)cc2s1 [Example 273, (2R,3R,4R,5R,6S)-2-(hydroxymethyl)-6-(5-methyl-4-(2-methylbenzo[d]thiazol-6-yl)-4H-1,2,4-triazol-3-yl)-4-(4-(3,4,5-trifluorophenyl)-1H-1,2,3-triazol-1-yl)tetrahydro-2H-pyran-3,5-diol] | 40 nM |
| Cc1nc2ccc(-n3c([C@@H]4O[C@H](CO)[C@H](O)[C@H](n5cc(-c6cc(F)c(F)c(F)c6)nn5)[C@H]4O)nnc3C(C)(C)O)cc2s1 [Example 276, (2R,3R,4R,5R,6S)-2-(hydroxymethyl)-6-(5-(2-hydroxypropan-2-yl)-4-(2-methylbenzo[d]thiazol-6-yl)-4H-1,2,4-triazol-3-yl)-4-(4-(3,4,5-trifluorophenyl)-1H-1,2,3-triazol-1-yl)tetrahydro-2H-pyran-3,5-diol] | 50 nM |
| Cc1nc2ccc(-n3c(C(N)=O)nnc3[C@@H]3O[C@H](CO)[C@H](O)[C@H](n4cc(-c5cc(F)c(F)c(F)c5)nn4)[C@H]3O)cc2s1 [Example 277, 5-((2S,3R,4R,5R,6R)-3,5-dihydroxy-6-(hydroxymethyl)-4-(4-(3,4,5-trifluorophenyl)-1H-1,2,3-triazol-1-yl)tetrahydro-2H-pyran-2-yl)-4-(2-methylbenzo[d]thiazol-6-yl)-4H-1,2,4-triazole-3-carboxamide] | 40 nM |
| CSc1nnc([C@@H]2O[C@H](CO)[C@H](O)[C@H](n3cc(-c4cc(F)c(F)c(F)c4)nn3)[C@H]2O)n1-c1ccc(Cl)c(Cl)c1 [Example 278, (2S,3R,4R,5R,6R)-2-(4-(3,4-dichlorophenyl)-5-(methylthio)-4H-1,2,4-triazol-3-yl)-6-(hydroxymethyl)-4-(4-(3,4,5-trifluorophenyl)-1H-1,2,3-triazol-1-yl)tetrahydro-2H-pyran-3,5-diol] | 120 nM |
| CS(=O)(=O)c1nnc([C@@H]2O[C@H](CO)[C@H](O)[C@H](n3cc(-c4cc(F)c(F)c(F)c4)nn3)[C@H]2O)n1-c1ccc(Cl)c(Cl)c1 [Example 279, (2S,3R,4R,5R,6R)-2-(4-(3,4-dichlorophenyl)-5-(methylsulfonyl)-4H-1,2,4-triazol-3-yl)-6-(hydroxymethyl)-4-(4-(3,4,5-trifluorophenyl)-1H-1,2,3-triazol-1-yl)tetrahydro-2H-pyran-3,5-diol] | 70 nM |
| Cc1nc2ccc(-n3c(C)nnc3[C@H]3C[C@@H](n4cc(-c5cc(F)c(F)c(F)c5)nn4)[C@@H](O)[C@@H](CO)O3)cc2s1 [Example 280, (2R,3R,4R,6R)-2-(hydroxymethyl)-6-(5-methyl-4-(2-methylbenzo[d]thiazol-6-yl)-4H-1,2,4-triazol-3-yl)-4-(4-(3,4,5-trifluorophenyl)-1H-1,2,3-triazol-1-yl)tetrahydro-2H-pyran-3-ol] | 70 nM |
| Cc1nc2ccc(-n3c([C@H]4C[C@@H](n5cc(-c6cc(F)c(F)c(F)c6)nn5)[C@@H](O)[C@@H](CO)O4)nnc3C(F)(F)F)cc2s1 [Example 281, (2R,3R,4R,6R)-2-(hydroxymethyl)-6-(4-(2-methylbenzo[d]thiazol-6-yl)-5-(trifluoromethyl)-4H-1,2,4-triazol-3-yl)-4-(4-(3,4,5-trifluorophenyl)-1H-1,2,3-triazol-1-yl)tetrahydro-2H-pyran-3-ol] | 80 nM |
| CO[C@@H]1[C@@H](n2cc(-c3cc(F)c(F)c(F)c3)nn2)[C@@H](O)[C@@H](CO)O[C@H]1c1nncn1-c1ccc2nc(C)sc2c1 [Example 282, (2R,3R,4S,5R,6S)-2-(hydroxymethyl)-5-methoxy-6-(4-(2-methylbenzo[d]thiazol-6-yl)-4H-1,2,4-triazol-3-yl)-4-(4-(3,4,5-trifluorophenyl)-1H-1,2,3-triazol-1-yl)tetrahydro-2H-pyran-3-ol] | 30 nM |
| Cc1nc([C@@H]2O[C@H](CO)[C@H](O)[C@H](n3cc(-c4cc(F)c(F)c(F)c4)nn3)[C@H]2O)c(-c2cccc(Cl)c2)s1 [Example 284, (2S,3R,4R,5R,6R)-2-(5-(3-chlorophenyl)-2-methylthiazol-4-yl)-6-(hydroxymethyl)-4-(4-(3,4,5-trifluorophenyl)-1H-1,2,3-triazol-1-yl)tetrahydro-2H-pyran-3,5-diol] | 2400 nM |
| OC[C@H]1O[C@@H](c2ccnn2-c2ccc(Cl)c(Cl)c2)[C@H](O)[C@@H](n2cc(-c3cc(F)c(F)c(F)c3)nn2)[C@H]1O [Example 285, (2S,3R,4R,5R,6R)-2-(1-(3,4-dichlorophenyl)-1H-pyrazol-5-yl)-6-(hydroxymethyl)-4-(4-(3,4,5-trifluorophenyl)-1H-1,2,3-triazol-1-yl)tetrahydro-2H-pyran-3,5-diol] | 445 nM |
| Cn1ncc(-c2cccc(Cl)c2)c1[C@@H]1O[C@H](CO)[C@H](O)[C@H](n2cc(-c3cc(F)c(F)c(F)c3)nn2)[C@H]1O [Example 287, (2S,3R,4R,5R,6R)-2-(4-(3-chlorophenyl)-1-methyl-1H-pyrazol-5-yl)-6-(hydroxymethyl)-4-(4-(3,4,5-trifluorophenyl)-1H-1,2,3-triazol-1-yl)tetrahydro-2H-pyran-3,5-diol] | 10000 nM |

same assay, conditions: read-out: hGal3 IC50

| Compound | IC50 |
| --- | --- |
| Cc1nc([C@@H]2O[C@H](CO)[C@H](O)[C@H](n3cc(-c4ccc(Cl)c(F)c4)nn3)[C@H]2O)n(-c2ccc(Cl)c(Cl)c2)n1 [Example 252] | 110 nM |
| Cc1nc([C@@H]2O[C@H](CO)[C@H](O)[C@H](n3cc(-c4ccc(Cl)c(F)c4)nn3)[C@H]2O)n(-c2ccc3ncccc3c2)n1 [Example 253] | 80 nM |
| Cc1nc([C@@H]2O[C@H](CO)[C@H](O)[C@H](n3cc(-c4ccc(Cl)c(F)c4)nn3)[C@H]2O)n(-c2cc(F)ccc2C(F)(F)F)n1 [Example 254] | 110 nM |
| Cc1nc([C@@H]2O[C@H](CO)[C@H](O)[C@H](n3cc(-c4ccc(Cl)c(F)c4)nn3)[C@H]2O)n(-c2cc(C(F)(F)F)ccc2Cl)n1 [Example 255] | 70 nM |
| Cc1nc([C@@H]2O[C@H](CO)[C@H](O)[C@H](n3cc(-c4ccc(Cl)c(F)c4)nn3)[C@H]2O)n(-c2ccc3ncsc3c2)n1 [Example 256] | 80 nM |
| Cc1nc([C@H]2C[C@@H](n3cc(-c4cc(F)c(Cl)c(F)c4)nn3)[C@@H](O)[C@@H](CO)O2)n(-c2cc(Cl)ccc2Cl)n1 [Example 262] | 100 nM |
| Cc1nc([C@H]2C[C@@H](n3cc(-c4cc(F)c(Cl)c(F)c4)nn3)[C@@H](O)[C@@H](CO)O2)n(-c2cc(Cl)ccc2C)n1 [Example 263] | 120 nM |
| Cc1nc([C@H]2C[C@@H](n3cc(-c4cc(F)c(Cl)c(F)c4)nn3)[C@@H](O)[C@@H](CO)O2)n(-c2ccc3ncsc3c2)n1 [Example 265] | 30 nM |
| Cc1nc2ccc(-n3c([C@@H]4O[C@H](CO)[C@H](O)[C@H](n5cc(-c6cc(F)c(F)c(F)c6)nn5)[C@H]4O)nnc3C(F)(F)F)cc2s1 [Example 274] | 50 nM |
| CCOC(=O)c1nnc([C@@H]2O[C@H](CO)[C@H](O)[C@H](n3cc(-c4cc(F)c(F)c(F)c4)nn3)[C@H]2O)n1-c1ccc2nc(C)sc2c1 [Example 275] | 60 nM |
